Assay results taken from US9567347B2, “Use of small molecule inhibitors targeting the interaction between RAC GTPase and p67(phox)” (CHILDREN'S HOSPITAL MEDICAL CENTER, priority 2012, dated 2017).

What was measured:
dHL-60 cells = experiment: antioxidant (ROS scavenger) test in dHL-60 cells pre-stimulated with fMLP; type: cell-based, human; settings: fMLP 30 min prior to treatment
Experimental: (A) Apoptosis analysis by FACS of HL-60 cells treated with compound or vehicle control for 2 hours prior to 7-AAD and Annexin V staining. (B) HL-60 cells from A were harvested and lysates were immunoblotted for levels of pPAK, and actin was used as a control for loading. (C) F-actin reorganization in freshly isolated fMLP-stimulated primary murine neutrophils was analyzed. […] Cells were exposed to a 10 μM dose of Phox-I1, Phox-I2, and Analog 13, and 200 nM nocodazole. (D) The effect of Phox-I on NOX4 mediated ROS production was tested in primary murine neutrophils transfected with a NOX4 expressing plasmid. 10 μM Phox-I1 was applied to the cells for 30 min prior to ROS assay by luminol chemiluminescence in the presence of HRP. The fMLP-stimulated ROS activity in the presence or absence of 10 uM Phox-I1 was measured in parallel. (E) The antioxidant abilities of these lead compounds were tested by prestimulating dHL-60 cells with fMLP for 30 minutes prior to treatment with Phox-I1 or Phox-I2. Levels of superoxide were analyzed by DCFDA assay and FACS. NAC, apocyanin, DPI, and NSC23766 treated cells served as controls. […] (G) For stability assay, DMSO-differentiated HL-60 cells were treated with 20 μM dose of compound for the indicated time period prior to fMLP stimulation and DCFDA ROS production assay by FACS analysis.
Phox-I1 was then applied to primary murine neutrophils expressing the constitutively active NOX4. […] To further rule out that Phox-I1 and Phox-I2 may simply act as scavengers of ROS, dHL-60 cells were pre-stimulated with fMLP for 30 min prior to treatment with Phox-I1 or Phox-I2.

[1] = system: undifferentiated HL-60 cells; experiment: apoptosis analysis by FACS (Annexin V / 7-AAD); type: cell-based, human; settings: 20 or 100 μM
Experimental: Cells (5×10^5) were harvested and processed for Annexin V/7AAD staining according to manufacturer's protocol (Becton Dickinson). Flow cytometry data were acquired on a FACS Canto bench-top flow cytometer (Becton Dickinson) and the cell cycle distributions were determined by […] using Flo-Jo software (Bosco et al (2010) Blood 115, 3320-3328, hereby incorporated by reference in its entirety). For ROS production assay, primary murine neutrophils or dHL60 cells were incubated with compound for 2 hours prior to addition of H2-DCFDA according to manufacturer's instructions (Molecular Probes). Cells were then stimulated with 10 μM fMLP (Sigma), 1 mM CaCl2, and 1.5 mM MgCl2 for 15 minutes prior to wash and FACS analysis for mean fluorescence intensity. Non-fMLP stimulated control values were subtracted from all samples before normalization to fMLP-stimulated, vehicle control treated sample in order to display percent ROS inhibition.
In order to determine potency and cytotoxicity of Phox-I1 and Phox-I2, the levels of apoptosis were assessed in undifferentiated HL-60 cells treated with 20 or 100 μM Phox-I1, Phox-I2, or NSC23766 by FACS analysis for Annexin V (FIG. 4A).

Pak = experiment: immunoblot of phosphorylated Pak; type: cell-based, human; settings: 18 hr treatment
Experimental: Whole-cell lysates were prepared by cell extraction using lysis buffer containing 20 mM Tris-HCl (pH 7.6), 100 mM NaCl, 10 mM MgCl2, 1% Triton X-100, 0.2% sodium deoxycholate, 1 mM phenylmethylsulfonyl fluoride, 10 μg/mL of leupeptin, 1 μg/mL of aprotinin, and 1 mM dithiothreitol for 30 min. Equal amounts of protein, as determined by Bradford assay, were resolved by SDS-PAGE. Specific proteins were detected by standard 9 immunoblotting procedures using the following primary antibodies: (Cell Signaling, 1:500 dilution) phospho-PAK1 (Ser144)/PAK2 (Ser141), (Sigma-Aldrich 1:500) β-Actin.
To analyze the biochemical specificity of these lead inhibitors on the effector pathways of active Rac1, undifferentiated HL-60 cells were treated with Phox-I1, Phox-I2, or NSC23766 for 18 hr. Immunoblot of the cell lysates was performed to probe the activity of Pak, a Rac effector other than p67^phox (FIG. 4B).

[2] = target: T1, p67^phox recombinant protein (1-200) (Homo sapiens, UniProt P19878); experiment: microscale thermophoresis binding to p67phox
T1 construct: using the pET30-HIS p67(1-212) plasmid; His; made in house; host or cells: E. coli BL21(DE3)
T1 sequence (P19878 1-212): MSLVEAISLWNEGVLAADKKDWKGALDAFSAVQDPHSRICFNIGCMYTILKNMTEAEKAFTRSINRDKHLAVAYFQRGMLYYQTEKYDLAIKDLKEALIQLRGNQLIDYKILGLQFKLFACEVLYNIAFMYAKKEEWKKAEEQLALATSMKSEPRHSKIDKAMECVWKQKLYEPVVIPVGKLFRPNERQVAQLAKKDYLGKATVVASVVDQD
Experimental: The p67^phox protein was expressed in BL21(DE3) bacteria (Stratagene) using the pET30-HIS p67(1-212) plasmid. Protein was purified using the QIAexpress Ni-NTA kit (Qiagen) or the GST Bind Resin Chromatography Kit (Novagen) for RacV12 and RacWT proteins. Mutagenesis was carried out using the Quick Change Lightening Site Directed Mutagenesis Kit (Stratagene).
Proteins were labeled for microscale thermophoresis using the Monolith NT Protein Labeling Kit Red (Nano Temper Technologies) as recommended by the manufacturer. Binding reactions were carried out using the Monolith NT. 115 (Nano Temper Technologies). Binding data was analyzed using Graphpad Prizm to estimate Kd values. The arbitrary fluorescence value from the thermophoresis plots for the smallest compound titration was subtracted from every other data point (Delta depletion) prior to normalization to a Vmax of 100. In thermophoresis plots where there was no binding, a curve could not be fit and therefore no Vmax could be assigned. In these instances the highest delta depletion value was set to 100 and all data were normalized accordingly.
To test the ability of compounds identified by preliminary screening to bind to the p67^phox protein in the N-terminal 200 amino acid region involved in Rac1-GTP interaction, microscale thermophoresis was employed. This technology probes for fluorescent changes in the hydration shell of molecules in order to measure protein-protein or protein small molecule interactions with high sensitivity in near-native conditions.

| Structure (SMILES) | levels of superoxide already produced (dHL-60 cells) | cell apoptosis (Annexin V) [1] | phosphorylated Pak levels (Pak) | Kd [2] [nM] | binding to p67^phox [2] |
| --- | --- | --- | --- | --- | --- |
| COc1ccc2c(c1)C1C=C(c3ccccc3)NN1C(c1cccc([N+](=O)[O-])c1)O2 (stereo not drawn) [Phox-I1] | do not affect | no detectable effect on cell apoptosis | not | ~100 | – |
| O=[N+]([O-])c1cccc(C2Nc3ccc([N+](=O)[O-])cc3C3C=CCC32)c1 (stereo not drawn) [Phox-I2] | do not affect | no detectable effect on cell apoptosis | not | ~150 | high affinity |
